Results as given in patent publication US20220152204A1, “PHOTOIMMUNOTHERAPY AND PHARMACEUTICAL AGENT USED THEREFOR” (SHIMADZU CORPORATION, priority 2019, published 2022).
Ends that are not written are not given here.

Experiments:
[1] = test system: Epidermal cancer cells (A431); test: Observation under fluorescent microscope of A431 cells before and after 690 nm laser exposure; format: cell-based; conditions: 20 μg added, 10 minutes at 37° C., 690 nm laser at 50 J
Description: Epidermal cancer cells (A431) were placed at 10,000 cells/mL into a 3.5 mm dish and incubated for 1 day. Subsequently, 20 μg of IF7C-IR700 or IR700 was added to the respective dish and incubation was performed for 10 minutes at 37° C.
Exposure to a 690 nm laser was performed at 50 J, and the A431 cells before and after exposure were observed under a fluorescent microscope (IX61 or IX81; Olympus America). […] From this, it can be inferred that IF7C-IR700 is internalized by cells and undergoes a reaction, causing the cells to shrink.

[2] = test system: xenograft model animals implanted with A431; test: Mouse experiment: fluorescent intensity monitoring of pharmaceutical agent accumulation in A431 xenograft model animals; format: in vivo; conditions: A431 xenograft mice, 0.033 μmol, Pearl Imager, monitored up to 180 min
Description: Five xenograft model animals implanted with A431 were treated with 0.033 μmol IF7C-IR700, and the fluorescent intensity of body surface, tumor and liver of the mice was monitored at 10 min intervals for up to 60 min and at 30 min intervals for up to 180 min with a Pearl Imager (LI-COR Bioscience) to check for accumulation of pharmaceutical agent. The fluorescent intensity over the tumor reached a maximum at 60 min, so exposure to therapeutic light was performed 60 min after pharmaceutical agent injection to carry out NIR-PIT with IF7C-IR700. For the PIT, exposure to NIR light was performed under conditions which enable cleavage of the IR700, at a wavelength of 680 nm to 690 nm and a dose of 10 J/cm^2.

## IF7C-IR700: IF7-C peptide (IFLLWQRC, SEQ ID NO: 6) conjugated with IR700 maleimide via the cysteine SH residue (IFLLWQRC(IR700 maleimide))
[1]
  cell shrinkage observed under fluorescent microscope after exposure: the cells had shrunk
[2]
  time at which fluorescent intensity over the tumor reached a maximum: 60 min
